# Measurements as given in publication PMC8483358 (2021).
# Legend:
# [1] = system: ALK wild-type (WT) hairpin oligonucleotide (DNA, hairpin) AAATTCAACCACCAGAACATTTTTATGTTCTGGTGGTTGAATTT; assay: SPR (Biacore X100), kinetic fit with mass transfer; conditions: 150 mM NaCl; HBS-EP: 10 mM HEPES, 3 mM EDTA, 0.005% P20, 0.1% DMSO, 25 °C
# [2] = system: F1174L-mutated ALK hairpin oligonucleotide (DNA, hairpin) AAATTAAACCACCAGAACATTTTTATGTTCTGGTGGTTTAATTT; assay: SPR (Biacore X100), kinetic fit with mass transfer; conditions: 150 mM NaCl; HBS-EP: 10 mM HEPES, 3 mM EDTA, 0.005% P20, 0.1% DMSO, 25 °C
smiles,measurement,setting,value
CC(=O)Nc1cc(C(=O)Nc2cc(C(=O)Nc3cc(C(=O)Nc4cc(C(=O)NCCC(=O)Nc5cc(C(=O)Nc6cc(C(=O)Nc7cc(C(=O)NCCCC(=O)Nc8cn(C)c(C(=O)Nc9cn(C)c(C(=O)NCCC(=O)Nc%10cn(C)c(C(=O)Nc%11cn(C)c(C(=O)Nc%12cc(C(=O)Nc%13ccc%14cc(C(=O)NCCCN(C)C)[nH]c%14c%13)n(C)c%12)n%11)n%10)n9)n8)n(C)c7)n(C)c6)n(C)c5)n(C)c4)n(C)c3)n(C)c2)n(C)c1,KD,[1],58.20 ± 1.62 × 10^-8 M
same,KD,[2],6.37 ± 0.41 × 10^-8 M
